biological target: T1, PGI2 receptor (Homo sapiens, UniProt P43119); assay: PGI2 receptor binding/cAMP in HEL cells (in vitro activity grade); conditions: compounds of purity about 40 to 90%
T1 construct: host or cells: HEL 92.1.7 human erythroleukemia cells (whole cells)
Experimental: [Measurement of the [^3H]-Iloprost Binding to HEL Cells] (Assay 1) A human erythloleukemia cell line, HEL 92.1.7, was purchased from American Type Culture Correction and maintained in RPMI-1640 medium (Gibco BRL) supplemented with 10% fetal calf serum (FCS), 2 mM glutamine, 4.5 g/L glucose, 10 mM Hepes, 1 mM sodium pyruvate, 100 U/ml penicillin, and 100 μg/ml streptomycin in a humidified 5% CO2 atmosphere at 37° C. Cells were collected with centrifugation and washed with binding assay buffer (BAB: 50 mM Tris-HCl, 5 mM MgCl2 (pH 7.5)). Cells were suspended at the density of 6.25×10^6 cells/ml in BAB, and one million cells in 160 μl aliquot of cell suspension were put in a well of 96 well plate (Falcon). Then, 20 μl of compound solution, 100 μM of iloprost (for non-specific binding), or buffer alone (total binding), diluted with 1% DMSO in BAB was added. Finally, another 20 μl containing [^3H]-iloprost (0.02 μCi, 0.5-1 pmol) in BAB was added and incubated at room temperature for 30 min with a gentle shaking. Cell suspension was then transferred to a well of MultiScreen plate with GF/C glass filters (Millipore) to harvest cells. Cells were washed twice with 200 μl of ice-cold BAB and the plate was kept at 55° C. for 30 min to dry filters. The filter in the well was punched out to a counting tube and 2 ml of Ultima Gold XR Packard) was added. [^3H]-radio activity in the filter was measured by a liquid scintillation counter (Beckman, USA). [Iloprost-Induced cAMP Production Assay in HEL Cells] (Assay 2) HEL cells were collected with centrifugation and washed with cAMP assay buffer (CAB: Hank's balanced salt solution, 17 mM Hepes, 0.1% bovine serum albumin, 1 mM IBMX, 0.4% DMSO, and 1 mM L-ascorbic acid sodium salt (pH 7.4)). Cells were suspended at the density of 2.5×10^5 cells/ml in CAB, and twenty thousand cells in 80 μl aliquot of cell suspension were put in a well of 96 well plate (Falcon). Then, 10 μl of compound solution diluted with 1% DMSO in CAB or buffer alone was added. The plate was incubated at 37° C. for 30 min. Then, another 10 μl containing 100 nM iloprost in CAB or buffer alone was added and further incubated at 37° C. for 30 min. cAMP content in the well was measured by, a cAMP ELISA kit (Applied Biosystems, USA). The data corresponds to the compounds as yielded by solid phase synthesis and thus to levels of purity of about 40 to 90%. For practical reasons, the compounds are grouped in three classes of activity as follows: In vitro activity grade=A≦0.1 μM<B≦1 μM<C

T1 sequence (P43119 whole entry): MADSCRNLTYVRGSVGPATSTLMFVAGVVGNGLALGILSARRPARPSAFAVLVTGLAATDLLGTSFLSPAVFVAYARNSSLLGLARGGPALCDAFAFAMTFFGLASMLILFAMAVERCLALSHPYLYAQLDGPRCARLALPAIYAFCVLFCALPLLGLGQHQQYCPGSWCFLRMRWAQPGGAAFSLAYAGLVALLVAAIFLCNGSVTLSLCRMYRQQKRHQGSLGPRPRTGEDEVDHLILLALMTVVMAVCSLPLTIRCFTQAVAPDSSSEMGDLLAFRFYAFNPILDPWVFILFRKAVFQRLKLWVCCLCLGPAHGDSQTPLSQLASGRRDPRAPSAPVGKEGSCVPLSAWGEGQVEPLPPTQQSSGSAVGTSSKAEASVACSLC

| Structure (SMILES) | In vitro activity grade |
| --- | --- |
| O=C(NC(Cc1ccccc1)C(=O)O)c1ccc(-c2ccc(OCc3ccc(F)cc3F)cc2)cc1 (centres unmarked) [Example 8-18] | A (A≦0.1 μM) |
| Cc1ccc(COc2ccc(-c3ccc(C(=O)NC(Cc4ccccc4)C(=O)O)cc3)cc2)cc1 (centres unmarked) [Example 8-19] | B (0.1 μM<B≦1 μM) |
| O=C(NC(Cc1ccccc1)C(=O)O)c1ccc(-c2ccc(OCc3cccc(C(F)(F)F)c3)cc2)cc1 (centres unmarked) [Example 8-20] | B (0.1 μM<B≦1 μM) |
| O=C(NC(Cc1ccccc1)C(=O)O)c1ccc(-c2ccc(OCc3ccc(C(F)(F)F)cc3)cc2)cc1 (centres unmarked) [Example 8-21] | C (1 μM<C) |
| O=C(NC(Cc1ccccc1)C(=O)O)c1ccc(-c2ccc(OCc3cccc(Cl)c3)cc2)cc1 (centres unmarked) [Example 8-22] | A (A≦0.1 μM) |
| COc1cc(COc2ccc(-c3ccc(C(=O)NC(Cc4ccccc4)C(=O)O)cc3)cc2)cc(OC)c1 (centres unmarked) [Example 8-23] | A (A≦0.1 μM) |
| Cc1ccccc1COc1ccc(-c2ccc(C(=O)NC(Cc3ccccc3)C(=O)O)cc2)cc1 (centres unmarked) [Example 8-24] | A (A≦0.1 μM) |
| Cc1cc(C)cc(COc2ccc(-c3ccc(C(=O)NC(Cc4ccccc4)C(=O)O)cc3)cc2)c1 (centres unmarked) [Example 8-25] | B (0.1 μM<B≦1 μM) |
| Cc1ccc(C)c(COc2ccc(-c3ccc(C(=O)NC(Cc4ccccc4)C(=O)O)cc3)cc2)c1 (centres unmarked) [Example 8-26] | B (0.1 μM<B≦1 μM) |
| Cc1ccc(COc2ccc(-c3ccc(C(=O)NC(Cc4ccccc4)C(=O)O)cc3)cc2)c(C)c1 (centres unmarked) [Example 8-27] | B (0.1 μM<B≦1 μM) |
| O=C(NC(Cc1ccccc1)C(=O)O)c1ccc(-c2ccc(OCc3cccc([N+](=O)[O-])c3)cc2)cc1 (centres unmarked) [Example 8-28] | A (A≦0.1 μM) |
| O=C(NC(Cc1ccccc1)C(=O)O)c1ccc(-c2ccc(OCc3ccccc3OC(F)(F)F)cc2)cc1 (centres unmarked) [Example 8-29] | C (1 μM<C) |
| O=C(NC(Cc1ccccc1)C(=O)O)c1ccc(-c2ccc(OCc3cccc(OC(F)(F)F)c3)cc2)cc1 (centres unmarked) [Example 8-30] | C (1 μM<C) |
| O=C(NC(Cc1ccccc1)C(=O)O)c1ccc(-c2ccc(OCc3ccc(OC(F)(F)F)cc3)cc2)cc1 (centres unmarked) [Example 8-31] | C (1 μM<C) |
| O=C(NC(Cc1ccccc1)C(=O)O)c1ccc(-c2ccc(OCc3ccc(Cl)cc3)cc2)cc1 (centres unmarked) [Example 8-32] | B (0.1 μM<B≦1 μM) |
| O=C(NC(Cc1ccccc1)C(=O)O)c1ccc(-c2ccc(OCC3CCCCC3)cc2)cc1 (centres unmarked) [Example 8-33] | B (0.1 μM<B≦1 μM) |
| O=C(NC(Cc1ccccc1)C(=O)O)c1ccc(-c2ccc(OCCCn3cccc3)cc2)cc1 (centres unmarked) [Example 8-34] | B (0.1 μM<B≦1 μM) |
| O=C(NC(Cc1ccccc1)C(=O)O)c1ccc(-c2ccc(OCCc3ccccc3)cc2)cc1 (centres unmarked) [Example 8-35] | A (A≦0.1 μM) |
| CC(Oc1ccc(-c2ccc(C(=O)NC(Cc3ccccc3)C(=O)O)cc2)cc1)c1ccccc1 (centres unmarked) [Example 8-36] | B (0.1 μM<B≦1 μM) |
| O=C(NC(Cc1ccccc1)C(=O)O)c1ccc(-c2ccc(OCCCc3ccccc3)cc2)cc1 (centres unmarked) [Example 8-37] | B (0.1 μM<B≦1 μM) |
| CCCCOc1ccc(-c2ccc(C(=O)NC(Cc3ccccc3)C(=O)O)cc2)cc1 (centres unmarked) [Example 8-38] | B (0.1 μM<B≦1 μM) |
| Nc1cccc(COc2ccc(-c3ccc(C(=O)NC(Cc4ccccc4)C(=O)O)cc3)cc2)c1 (centres unmarked) [Example 8-39] | A (A≦0.1 μM) |
| O=C(NC(Cc1ccccc1)C(=O)O)c1ccc(-c2ccc(OCCN3CCCCC3)cc2)cc1 (centres unmarked) [Example 8-40] | C (1 μM<C) |

Reference: patent US20060247260A1, “Bis (hetero) aryl carboxamide derivatives for use as PG12 antagonists” (BAYER HEALTHCARE AG, priority 2003, published 2006)
